Data as given in ChEMBL document CHEMBL4325829, “Design and Synthesis of Tubulin and Histone Deacetylase Inhibitor Based on iso-Combretastatin A-4” (J Med Chem, 2018).
Activity calls are given as the source filed them. The calls are words filed in the database; no cut-off is given here.

Columns and labels:
K562 = assay: Induction of cell cycle arrest in human K562 cells assessed as accumulation at G2/M phase at 5 to 10 nM after 24 hrs by propidium iodide-staining based flow cytometry; type: functional
HCT-116 = assay: Induction of cell cycle arrest in human HCT116 cells assessed as accumulation at G2/M phase at 5 to 10 nM after 24 hrs by propidium iodide-staining based flow cytometry; type: functional
K-562R = assay: Potency index, ratio of IC50 for TSA to IC50 for test compound for antiproliferative activity against human K562R cells after 72 hrs by MTS assay; type: functional
Tubulin (Homo sapiens) = Tubulin (Homo sapiens) (UniProt P68371+Q9H4B7+P0DPH7+P68366+Q13509+Q71U36+P04350+Q3ZCM7+P07437+P68363+Q9BQE3+Q6PEY2+Q13885+Q9BVA1+Q9BUF5); assay: Inhibition of tubulin polymerization in human K562 cells assessed as shrinkage of microtubule spindles at 10 nM after 24 hrs by DAPI-staining based inverted microscopy; type: cell-based
[1] = target: T1, Histone deacetylase 8 (Homo sapiens) (UniProt Q9BY41); assay: Inhibition of HDAC8 in human HT-29 cells assessed as acetylated SMC3 levels at 25 uM after 24 hrs by Western blot analysis relative to control; type: cell-based
T1 sequence (whole entry): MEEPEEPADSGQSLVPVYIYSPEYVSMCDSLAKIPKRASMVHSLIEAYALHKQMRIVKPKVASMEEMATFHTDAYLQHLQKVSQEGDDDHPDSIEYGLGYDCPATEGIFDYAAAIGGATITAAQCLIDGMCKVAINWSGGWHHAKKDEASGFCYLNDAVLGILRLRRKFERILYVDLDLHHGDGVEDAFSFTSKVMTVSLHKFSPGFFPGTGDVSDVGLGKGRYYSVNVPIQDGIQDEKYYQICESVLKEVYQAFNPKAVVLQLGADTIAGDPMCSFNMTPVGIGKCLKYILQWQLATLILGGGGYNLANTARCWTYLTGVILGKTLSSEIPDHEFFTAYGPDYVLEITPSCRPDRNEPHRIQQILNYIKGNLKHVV

HT-29 = assay: Potency index, ratio of IC50 for isoCA4 to IC50 for test compound for antiproliferative activity against human HT-29 cells after 72 hrs by MTS assay; type: functional
[2] = target: T2, Protein deacetylase HDAC6 (Homo sapiens, UniProt Q9UBN7)
T2 sequence (Q9UBN7 whole entry): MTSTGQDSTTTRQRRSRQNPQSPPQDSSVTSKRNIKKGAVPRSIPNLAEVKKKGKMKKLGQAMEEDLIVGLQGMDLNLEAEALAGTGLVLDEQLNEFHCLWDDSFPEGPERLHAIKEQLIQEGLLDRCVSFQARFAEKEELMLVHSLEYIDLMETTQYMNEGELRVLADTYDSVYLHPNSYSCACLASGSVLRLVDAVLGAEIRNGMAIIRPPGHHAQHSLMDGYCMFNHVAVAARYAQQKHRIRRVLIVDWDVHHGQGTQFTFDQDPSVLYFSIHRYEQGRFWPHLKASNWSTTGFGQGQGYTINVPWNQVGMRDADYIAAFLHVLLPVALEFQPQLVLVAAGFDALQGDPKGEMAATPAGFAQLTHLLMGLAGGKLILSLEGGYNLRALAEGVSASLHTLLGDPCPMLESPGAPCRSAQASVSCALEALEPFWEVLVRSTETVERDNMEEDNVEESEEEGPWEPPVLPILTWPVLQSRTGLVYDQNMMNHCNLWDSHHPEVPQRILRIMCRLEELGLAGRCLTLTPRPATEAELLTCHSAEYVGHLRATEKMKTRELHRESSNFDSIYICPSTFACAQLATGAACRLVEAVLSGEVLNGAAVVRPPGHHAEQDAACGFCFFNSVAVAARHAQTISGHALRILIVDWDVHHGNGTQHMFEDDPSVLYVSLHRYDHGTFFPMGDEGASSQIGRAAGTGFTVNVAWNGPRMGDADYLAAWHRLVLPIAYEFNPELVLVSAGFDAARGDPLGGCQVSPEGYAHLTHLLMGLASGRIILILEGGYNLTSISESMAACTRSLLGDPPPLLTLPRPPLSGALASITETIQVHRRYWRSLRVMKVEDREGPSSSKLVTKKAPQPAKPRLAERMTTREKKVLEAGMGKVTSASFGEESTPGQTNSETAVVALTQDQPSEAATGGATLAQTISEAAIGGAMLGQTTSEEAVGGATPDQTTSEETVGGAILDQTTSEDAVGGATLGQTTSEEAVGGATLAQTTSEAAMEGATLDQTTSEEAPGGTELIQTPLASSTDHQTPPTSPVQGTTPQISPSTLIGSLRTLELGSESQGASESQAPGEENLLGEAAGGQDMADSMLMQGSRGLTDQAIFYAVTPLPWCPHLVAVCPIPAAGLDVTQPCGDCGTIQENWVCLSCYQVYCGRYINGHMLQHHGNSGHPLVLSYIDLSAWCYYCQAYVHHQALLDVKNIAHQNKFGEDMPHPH
Description: Inhibition of human recombinant HDAC6 after 30 mins using fluorogenic substrate by fluorimetric assay

[3] = target: T1, Histone deacetylase 8 (Homo sapiens); assay: Inhibition of HDAC8 in human HT-29 cells assessed as acetylated SMC3 levels at 25 uM after 6 hrs by Western blot analysis relative to control; type: cell-based
[4] = target: Histone deacetylase (Homo sapiens) (UniProt Q13547+O15379+Q9UBN7+Q92769+Q9UQL6+Q8WUI4+Q9BY41+Q96DB2+P56524+Q9UKV0+Q969S8); assay: Inhibition of HDAC in human HT-29 cells assessed as gamma-H2AX phosphorylation after 3 days by Western blot analysis; type: cell-based
U-87 MG = assay: Potency index, ratio of IC50 for TSA to IC50 for test compound for antiproliferative activity against human U87 cells after 72 hrs by MTS assay; type: functional, U-87MG ATCC
[5] = target: T3, Protein deacetylase HDAC6 (Homo sapiens) (UniProt Q9UBN7); assay: Inhibition of HDAC6 in human HT-29 cells assessed as acetylated alpha-tubulin levels at 25 uM after 6 hrs by Western blot analysis relative to control; type: cell-based
T3 sequence (whole entry): T2 sequence (Q9UBN7 whole entry)

[6] = Antiproliferative activity against human BL2 cells after 72 hrs by MTS assay; type: functional, cell-based; settings: BL2, 72 h
Homo sapiens = species on record: Homo sapiens; assay: Induction of cell cycle arrest in human BL2 cells assessed as accumulation at G2/M phase after 24 hrs by propidium iodide-staining based flow cytometry; type: functional

Activity (Tubulin (Homo sapiens)): Active
fold change (FC) [1]: 5.4
IC50 [2]: 15 µM
fold change (FC) [3]: 3.2
inhibition [4]: Dose-dependent effect
fold change (FC) [5]: 0.4
Structure (SMILES): C=C(c1ccc(OC)c(/C=C/C(=O)NO)c1)c1cc(OC)c(OC)c(OC)c1
Activity (K562): Active
Activity (HCT-116): Active
Ratio IC50 (K-562R): 60
Ratio IC50 (HT-29): 135
Ratio IC50 (U-87 MG): 650
IC50 [6]: 10 nM
Activity (Homo sapiens): Active
